Laboratory results reported in patent US9347077B2, “Over-expression of a putative oxidoreductase (UcpA) for increasing furfural or 5-hydroxymethylfurfural tolerance” (UNIVERSITY OF FLORIDA RESEARCH FOUNDATION, INCORPORATED, priority 2011, dated 2016).

Assays:
Type in all cases: cell-based, Escherichia coli
[1] = system: XW137 (E. coli W ucpA::kan); experiment: pH-controlled batch fermentation (10% xylose)
E. coli W = experiment: pH-controlled batch fermentation (10% xylose)
LY180 = experiment: pH-controlled batch fermentation (10% xylose)
LY180/pLOI4856 = experiment: pH-controlled batch fermentation (10% xylose)
Protocol: (§1) Seed pre-cultures of strains containing pTrc99A or pLOI4856 were grown from plates using sealed culture tubes containing AM1 medium (20 g liter^−1 xylose, 12.5 mg liter^−1 ampicillin). After incubation for 16 h, pre-inocula were diluted into 500-ml fermentation vessels containing 300 ml AM1 media (100 g liter^−1 xylose, 1 mM betaine, 0.1 mM IPTG, 12.5 μg ml^−1 ampicillin) to provide a starting density of 13.2 mg dcw. After 24 h growth, these seed cultures were used to provide a starting inoculum for batch fermentations (AM1 medium, 100 g liter^−1 xylose, 12.5 μg ml^−1 ampicillin, 0.1 mM IPTG, 13.2 mg dcw initial density, and furfural). Fermentations were maintained at pH 6.5 […] by the automatic addition of KOH as previously described (Miller et al., 2009b). Ethanol was measured using an Agilent 6890N gas chromatograph (Palo Alto, Calif.) equipped with a flame ionization detector and a 15-meter HP-Plot Q Megabore column. Furfural concentration was monitored using a Beckman DU spectrophotometer (Martinez et al., 2000b; Miller et al., 2009b). Organic acids and xylose were measured by high-performance liquid chromatography (Miller et al., 2009b).
(§2) The effects of UcpA on growth, ethanol production, and furfural metabolism were investigated in more detail during pH-controlled batch fermentation in mineral salt medium (AM1 medium containing 100 g xylose liter^−1, 0.1 mM IPTG and 12.5 μg ml^−1 ampicillin for all cultures harboring plasmids; furfural as indicated; inoculum of 22 mg dcw liter^−1) as previously described (Wang et al., 2011b). Ethanol (retention time 1.1 min) and furfuryl alcohol (retention time 6.2 min) were measured using an Agilent 6890N gas chromatograph (Santa Clara, Calif.) (Miller et al., 2009b). Furoic acid (retention time of 51.2 min) and sugars were measured by high-performance liquid chromatography (Geddes et al., 2010a). Furfural was measured using a Beckman-Coulter DU 800 spectrophotometer (Martinez et al., 2000a).

LY180/pTrc99A = experiment: pH-controlled batch fermentation (10% xylose)
Protocol: as §1, §2

LY180 (pLOI4856) [2] = experiment: Furfural toxicity / MIC in tube cultures, ucpA plasmid; details: Escherichia coli, 48 h, read-out: MIC of furfural
Protocol: (§3) Furfural toxicity was measured in tube cultures (13 mm by 100 mm) containing 4 ml of AM1 medium with 50 g liter^−1 xylose, 12.5 mg liter^−1 ampicillin, furfural, and other supplements as indicated (Miller et al., 2009a, b). Cultures were inoculated to an initial density of 22 mg dcw liter^−1. IPTG (0.1 mM) was included for fucO induction. Cell mass was measured at 550 nm after incubation for 48 h (37° C.). For cysteine supplement experiment, the culture condition was the same but included 0.1 mM cysteine as an amendment.
(§4) Derivatives of LY180 containing these plasmids were tested for furfural tolerance with (0.1 mM IPTG) and without IPTG induction using an MIC assay (Miller et al., 2009a; Miller et al., 2010; Wang et al., 2011b).

LY180 (pLOI4856) [3] = experiment: In vivo (whole cell) furfural reduction; details: plasmid copies of ucpA; similar to the vector control
Protocol: In vivo furfural reduction was measured during incubation in AM1 medium containing 10 mM furfural and 50 g liter^−1 xylose. Cells were pre-incubated with chloramphenicol (40 mg liter^−1) for 1 h to arrest growth (0.88 mg dcw cells ml^−1), prior to the addition of furfural. Furfural concentration was measured as previously described using a Beckman spectrophotometer DU800 (Martinez et al., 2000b).

XW118 (LY180 ucpA::kan) = experiment: pH-controlled batch fermentation (10% xylose)
Protocol: as §2

E. coli W/pLOI4856 = experiment: pH-controlled batch fermentation (10% xylose); details: 10 mM furfural
LY180(pTrc99A) = experiment: Furfural toxicity / MIC in tube cultures, vector control; details: Escherichia coli, 48 h, read-out: MIC of furfural
Protocol: as §3, §4

E. coli W/pTrc99A = experiment: pH-controlled batch fermentation (10% xylose); details: 10 mM furfural
[4] = 15 mM furfural, batch fermentation of xylose to ethanol

O=Cc1ccco1 [furfural]
Cell Yield ([1]; 8 mM furfural): 1.9 ± 0.1 g/L | Furfural-dependent slow growth Duration ([1]; 8 mM furfural): 16 ± 3 h | Furfural-dependent slow growth μ ([1]; 8 mM furfural): 0.11 ± 0.02 h⁻¹ | Cell Yield ([1]; 10 mM furfural): 1.9 ± 0.1 g/L | Furfural-dependent slow growth Duration ([1]; 10 mM furfural): 37 ± 2 h | Furfural-dependent slow growth μ ([1]; 10 mM furfural): 0.02 ± 0.01 h⁻¹ | μ Max ([1]; 10 mM furfural): 0.12 ± 0.02 h⁻¹ | Cell Yield (E. coli W; 8 mM furfural): 1.9 ± 0.1 g/L | Furfural-dependent slow growth Duration (E. coli W; 8 mM furfural): 13 ± 1 h | Furfural-dependent slow growth μ (E. coli W; 8 mM furfural): 0.18 ± 0.01 h⁻¹ | μ Max (E. coli W; 8 mM furfural): 0.19 ± 0.01 h⁻¹ | Cell Yield (E. coli W; 10 mM furfural): 2.0 ± 0.1 g/L | Furfural-dependent slow growth Duration (E. coli W; 10 mM furfural): 21 ± 1 h | Furfural-dependent slow growth μ (E. coli W; 10 mM furfural): 0.06 ± 0.02 h⁻¹ | μ Max (E. coli W; 10 mM furfural): 0.20 ± 0.02 h⁻¹ | Cell Yield (LY180; 8 mM furfural): 4.0 ± 0.1 g/L | Furfural-dependent slow growth μ (LY180; 8 mM furfural): 0.09 ± 0.01 h⁻¹ | μ Max (LY180; 8 mM furfural): 0.16 ± 0.01 h⁻¹ | Cell Yield (LY180; 10 mM furfural): 0.08 ± 0.02 g/L | Furfural-dependent slow growth Duration (LY180; 10 mM furfural): >72 h | Furfural-dependent slow growth μ (LY180; 10 mM furfural): <0.04 h⁻¹ | μ Max (LY180; 10 mM furfural): <0.04 h⁻¹ | Cell Yield (LY180/pLOI4856; 10 mM furfural): 3.6 ± 0.1 g/L | Furfural-dependent slow growth Duration (LY180/pLOI4856; 10 mM furfural): 22 ± 2 h | Furfural-dependent slow growth μ (LY180/pLOI4856; 10 mM furfural): 0.09 ± 0.01 h⁻¹ | μ Max (LY180/pLOI4856; 10 mM furfural): 0.14 ± 0.01 h⁻¹ | Final ethanol yield (LY180/pLOI4856; 15 mM furfural, 100 g liter^−1 xylose): approximately 90 % of the theoretical maximum | Growth lag in the presence of furfural (LY180/pLOI4856; [4]): 24 h | Cell Yield (LY180/pTrc99A; 10 mM furfural): 0.06 ± 0.01 g/L | Furfural-dependent slow growth Duration (LY180/pTrc99A; 10 mM furfural): >72 h | Furfural-dependent slow growth μ (LY180/pTrc99A; 10 mM furfural): <0.04 h⁻¹ | μ Max (LY180/pTrc99A; 10 mM furfural): <0.04 h⁻¹ | Growth in the presence of furfural (LY180/pTrc99A; [4]): unable to grow | MIC (LY180 (pLOI4856) [2]): 15 mM | Whole-cell specific activity (furfural reductase) (LY180 (pLOI4856) [3]): < 0.10 U mg dcw^−1 | Cell Yield (XW118 (LY180 ucpA::kan); 8 mM furfural): 4.0 ± 0.1 g/L | Furfural-dependent slow growth Duration (XW118 (LY180 ucpA::kan); 8 mM furfural): 55 ± 2 h | Furfural-dependent slow growth μ (XW118 (LY180 ucpA::kan); 8 mM furfural): 0.01 ± 0.01 h⁻¹ | μ Max (XW118 (LY180 ucpA::kan); 8 mM furfural): 0.14 ± 0.01 h⁻¹ | Cell Yield (XW118 (LY180 ucpA::kan); 10 mM furfural): 0.04 ± 0.01 g/L | Furfural-dependent slow growth Duration (XW118 (LY180 ucpA::kan); 10 mM furfural): >72 h | Furfural-dependent slow growth μ (XW118 (LY180 ucpA::kan); 10 mM furfural): <0.04 h⁻¹ | μ Max (XW118 (LY180 ucpA::kan); 10 mM furfural): <0.04 h⁻¹ | Cell Yield (E. coli W/pLOI4856): 2.5 ± 0.3 g/L | Furfural-dependent slow growth Duration (E. coli W/pLOI4856): 16 ± 2 h | Furfural-dependent slow growth μ (E. coli W/pLOI4856): 0.07 ± 0.01 h⁻¹ | μ Max (E. coli W/pLOI4856): 0.18 ± 0.02 h⁻¹ | MIC (LY180(pTrc99A)): 10 mM | Cell Yield (E. coli W/pTrc99A): 2.0 ± 0.3 g/L | Furfural-dependent slow growth Duration (E. coli W/pTrc99A): 26 ± 4 h | Furfural-dependent slow growth μ (E. coli W/pTrc99A): 0.03 ± 0.01 h⁻¹ | μ Max (E. coli W/pTrc99A): 0.13 ± 0.01 h⁻¹
